Several values for one entry are separate records, joined by “and”; a condition that tells them apart may be missing. Equal values may be shown once.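 These data come from cells grown in 96-well plates and exposed to compound for 48 hours at five concentrations. The concentration for 50% growth inhibition is given as GI50. The concentration for full growth arrest is given as TGI.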
Experiments:
Experiment in all cases: growth of human tumour cells (NCI), 48 h
IGROV1 ovarian = test system: IGROV1 ovarian
U251 CNS = test system: U251 CNS
HOP-92 NSCLC = test system: HOP-92 NSCLC
A549 NSCLC = test system: A549 NSCLC
HL-60(TB) leukemia = test system: HL-60(TB) leukemia
SN12C renal = test system: SN12C renal
HCC-2998 colon = test system: HCC-2998 colon
DU-145 prostate = test system: DU-145 prostate
HS 578T breast = test system: HS 578T breast
PC-3 prostate = test system: PC-3 prostate
NCI/ADR-RES ovarian = test system: NCI/ADR-RES ovarian

Structure (SMILES)	TGI (IGROV1 ovarian)	TGI (U251 CNS)	TGI (HOP-92 NSCLC)	TGI (A549 NSCLC)	TGI (HL-60(TB) leukemia)	TGI (SN12C renal)	TGI (HCC-2998 colon)	TGI (DU-145 prostate)	TGI (HS 578T breast)	TGI (PC-3 prostate)	TGI (NCI/ADR-RES ovarian)	GI50 (IGROV1 ovarian)	GI50 (U251 CNS)	GI50 (HOP-92 NSCLC)	GI50 (PC-3 prostate)	GI50 (A549 NSCLC)	GI50 (HL-60(TB) leukemia)	GI50 (SN12C renal)	GI50 (HCC-2998 colon)
NC(=S)N/N=C/c1nccc2ccccc12	> 100 µM	> 100 µM	> 100 µM	> 100 µM	4.23 µM	> 100 µM	> 100 µM												
CCN(CC)CCC(=O)c1ccc(Sc2ccc(F)cc2)cc1	35 µM	31.1 µM		> 100 µM	50.5 µM	46.8 µM	89.6 µM	36.1 µM	30.8 µM	33.6 µM	71.1 µM								
C1=NCCN2CCN(CCN=Cc3ccccc3OCc3cccc(n3)COc3ccccc31)CC2	37.2 µM	10.2 µM	41.6 µM	> 50 µM	22.6 µM	26.3 µM		35.7 µM	4.43 µM	> 50 µM	17.2 µM								
COc1cc(=O)c2c(O)c3c(O)oc(C)cc3c(OC)c2c1	70.2 µM	> 100 µM	42.4 µM	87.7 µM	> 100 µM	55.8 µM		> 100 µM	> 100 µM	> 100 µM	46.7 µM								
O=Cc1c2n(c3ccccc13)N[C@@](Cc1ccc(O)cc1)(C(=O)O)C2	> 100 µM	> 100 µM	> 100 µM	> 100 µM	> 100 µM			> 100 µM	> 100 µM	> 100 µM	> 100 µM								
CCCC(=O)Nc1cc(/C=C/C(=O)N2CC(CCl)c3c2cc(OCc2ccccc2)c2[nH]cc(C)c32)n(C)c1 (centres undefined)	> 25 µM	> 9.21 µM	0.213 µM		0.26 µM	> 25 µM			0.468 µM	> 13.1 µM	0.182 µM								
CCN(CC)Cc1cc(Nc2c3ccccc3nc3c2[nH]c2ccccc23)cc(CN(CC)CC)c1O	3.29 µM	2.19 µM	3.86 µM	10.4 µM	> 100 µM	2.18 µM	2.27 µM	7.99 µM	4.71 µM	2.75 µM									
c1cnn(C23C4C5C6C4C2C6C53)c1 (centres undefined)	> 100 µM	> 100 µM		> 100 µM	> 100 µM	> 100 µM	> 100 µM	> 100 µM	> 100 µM	> 100 µM	> 100 µM								
CCCCCC1CC=CC(=O)O1 (centres undefined)	17.7 µM	17.2 µM	37.7 µM	65.8 µM	> 100 µM	21.2 µM		> 100 µM	88.5 µM	26.3 µM	25.6 µM								
N#C[C@H](C(=O)c1ccccc1F)c1nc2ccccc2s1	> 100 µM	> 100 µM	> 100 µM	> 100 µM	79.2 µM	> 100 µM		> 100 µM	> 100 µM	> 100 µM	> 100 µM								
COc1cc([C@@H]2c3cc4c(c(O)c3C[C@H]3COC(=O)[C@@H]32)OCO4)cc(OC)c1OC		> 100 µM								> 241 µM		0.0728 µM	0.183 µM	8.17 µM	0.0428 µM and 0.161 µM	0.274 µM	0.582 µM	0.581 µM	< 0.0241 µM and 0.241 µM
O=C(Cn1cc(-c2ccccc2)nn1)NC1CCCCC1	> 100 µM	> 100 µM	> 100 µM	> 100 µM	> 100 µM	> 100 µM	> 100 µM	> 100 µM		> 100 µM	> 100 µM								
CCOc1ccc(N/C(=C(/C(Cl)=C(/Cl)Nc2ccccc2)[N+](=O)[O-])n2nnc3ccccc32)cc1		33.6 µM	40.6 µM	> 100 µM		47.2 µM	> 100 µM	> 100 µM		58.4 µM	53.7 µM								
Cc1[nH]c(=O)nc2c1C(NCCCN(C)C)c1cc(Cl)ccc1N2 (centres undefined)	30.1 µM	29.3 µM	23.4 µM	28.1 µM	34.4 µM	28.2 µM	30.1 µM												
c1ccc2c(c1)NCCC(=NC1CCCCC1)N2	> 100 µM	> 100 µM		> 100 µM	> 100 µM	> 100 µM		> 100 µM	> 100 µM	> 100 µM	> 100 µM								
C(/C=C/c1ccccc1)=Nc1ccc2c(c1)Cc1ccccc1-2	> 100 µM	44.4 µM	> 100 µM	> 100 µM		> 100 µM		> 100 µM	> 100 µM	> 100 µM	> 100 µM								
CC1=NN(C(=O)c2ccccc2O)C(=O)/C1=C/c1cccc(O)c1		> 100 µM	> 100 µM	> 100 µM	> 100 µM	> 100 µM	> 100 µM	> 100 µM		> 100 µM	> 100 µM								

Structure (SMILES)	TGI (IGROV1 ovarian)	TGI (U251 CNS)	TGI (HOP-92 NSCLC)	TGI (A549 NSCLC)	TGI (HL-60(TB) leukemia)	TGI (SN12C renal)	TGI (HCC-2998 colon)	TGI (DU-145 prostate)	TGI (HS 578T breast)	TGI (PC-3 prostate)	TGI (NCI/ADR-RES ovarian)	GI50 (IGROV1 ovarian)	GI50 (U251 CNS)	GI50 (HOP-92 NSCLC)	GI50 (PC-3 prostate)	GI50 (A549 NSCLC)	GI50 (HL-60(TB) leukemia)	GI50 (SN12C renal)	GI50 (HCC-2998 colon)
COc1ccc(N=C2S/C(=N\C(=Nc3ccccc3)SCc3ccccc3)N(c3ccccc3)C2=Nc2ccc(OC)cc2)cc1	> 100 µM		> 100 µM	> 100 µM	> 100 µM	> 100 µM	> 100 µM		> 100 µM	> 100 µM									
Cc1nc2c(c(=O)[nH]1)S/C(=C(/C#N)c1nc3ccccc3[nH]1)N2c1ccccc1	> 100 µM	> 100 µM	> 100 µM	> 100 µM	> 100 µM	> 100 µM	> 100 µM												
C=C(C)C(=O)O[C@H]1CC2=C[C@@H](C[C@@]3(C)O[C@@H]3[C@H]3OC(=O)C(=C)[C@@H]31)OC2=O	9.46 µM	14.6 µM	2.78 µM	27.1 µM	1.12 µM	8.02 µM	9.82 µM				5.18 µM								
CCOC(=O)CCC(NC(=O)Cc1ccc(Nc2nc3ccccc3nc2-c2cccs2)cc1)C(=O)OCC (centres undefined)		> 100 µM		> 100 µM	> 100 µM	> 100 µM	> 100 µM	> 100 µM	> 100 µM	> 100 µM	> 100 µM								
Nc1ccccc1Nc1ccccc1C(=O)[O-].Nc1ccccc1Nc1ccccc1C(=O)[O-].[Zn+2]	> 100 µM	> 100 µM		> 100 µM		> 100 µM	> 100 µM												
COc1ccccc1C1C(Cl)C(=O)N1n1cnc2ccccc2c1=O (centres undefined)	> 100 µM	> 100 µM		> 100 µM	> 100 µM	> 100 µM	> 100 µM												
Clc1ccc(Nc2nnc(CCCCCCCCc3nnc(Nc4ccc(Cl)cc4)o3)o2)cc1	> 100 µM	> 100 µM	98.7 µM	89.8 µM		> 100 µM	> 100 µM	> 100 µM		> 100 µM	> 100 µM								
Oc1cc(O)c2ccc(-c3ccc(O)c(O)c3)[o+]c2c1	> 100 µM	> 100 µM	> 100 µM	> 100 µM	> 100 µM	> 100 µM	> 100 µM		> 100 µM	> 100 µM	> 100 µM								
O=C1c2cccnc2S(=O)(=O)N1c1ccc(Oc2ccccc2)cc1	> 100 µM	> 100 µM	> 100 µM	> 100 µM	> 100 µM	> 100 µM	> 100 µM	> 100 µM		> 100 µM	> 100 µM								
C[Si](C)(C)C#Cc1cc(-c2nc3ccccc3s2)ccc1N	13.2 µM	37.9 µM	27.8 µM	40.7 µM	50 µM	30.1 µM		62.1 µM	51 µM	34.2 µM	32.3 µM								
S=C(NNC1=NCCCCN1)Nc1ccc(Cl)cc1	> 100 µM	> 100 µM	> 100 µM	> 100 µM	> 100 µM		> 100 µM		> 100 µM	62.8 µM	> 100 µM								
OCc1cc2c(ccc3sc4ccc5sc6ccc7ncccc7c6c5c4c32)s1	26.4 µM	> 100 µM	> 100 µM	31.1 µM	67.1 µM	26.8 µM		33.6 µM	31.9 µM	43.9 µM	82.5 µM								
CC(C)(C)c1cc(-c2cc(C(C)(C)C)[nH]n2)n[nH]1	> 100 µM	> 100 µM	> 100 µM	> 100 µM	> 100 µM	> 100 µM	> 100 µM	> 100 µM	> 100 µM	> 100 µM									
O=C1NC(=S)N/C1=C\c1cc2c(=O)c3ccccc3sc2s1	> 100 µM	> 100 µM			> 100 µM	> 100 µM	> 100 µM	> 100 µM	> 100 µM	> 100 µM	> 100 µM								
O=P1(Oc2ccccc2)N=P(c2ccccc2)(c2ccccc2)C=C(c2ccc(Cl)cc2)N1 (centres undefined)	26.5 µM	18.8 µM	25.4 µM	16.1 µM	20.5 µM	32.4 µM		26.9 µM	43.5 µM	20.7 µM	27.9 µM								
N#Cc1cnc(-n2[nH]c3c(c2=O)CCCC3)[nH]c1=O	> 100 µM	> 100 µM	> 100 µM	> 100 µM	> 100 µM	> 100 µM		> 100 µM	> 100 µM	> 100 µM									
Cc1ccc2c(=O)cc(Cc3cccs3)[nH]c2n1	> 100 µM	> 100 µM		> 100 µM	> 100 µM	> 100 µM		> 100 µM	> 100 µM	> 100 µM	> 100 µM								
